Earlier results, collected in patent US20240173301A1, “2-IMINOBIOTIN FOR USE IN THE TREATMENT OF STROKE” (NEUROPHYXIA B.V., priority 2021, published 2024).
Where two headings read alike, the source gives them in different places. Where no end group is shown, it is not given here.

How the values were obtained:
[1] = healthy volunteers; preclinical safety; Phase I and II studies in neonates with asphyxia and adults after cardiac arrest
[2] = in vivo
[3] = adult human patients after cardiac arrest
[4] = single dose

Molecule	safety [1]	effect on tissue damage after ischemia-reperfusion [2]	concentration range at which 2-IB is most active in vitro (neuronal culture)	tolerability of eGFR adjusted dose [3]	clinical outcome ([4]; alteplase-treated stroke patients)	clinical outcome ([4]; stroke patients that did not receive alteplase)
N=C1N[C@H]2[C@H](CS[C@H]2CCCCC(=O)O)N1 [2-IB, 2-iminobiotin]	proven to be safe	prevents (further) tissue damage	around 30 ng/ml	tolerated without clinical drug-related adverse events		
YGRKKRRQRRRKLSSIESDV [nerinetide]					did not show favorable outcomes	significant improvement
